Test results as given in patent US20240408117A1, “COMPOSITIONS AND METHODS FOR TREATING HEMIPLEGIC MIGRAINE” (Schedule 1 Therapeutics, Inc., priority 2023, published 2024).
≈ marks a conversion by molar mass, not a printed value.

Legend:
OEL of cannabidiol = conditions: estimated
[1] = Accelerated and long-term stability studies of cannabidiol (ICH Q1A (R2)); type: physicochemical; conditions: batches stored per ICH Q1A (R2)
Experimental: Manufacturing of all lots of cannabidiol was conducted in a manner consistent with Good Manufacturing Practices and ICH Q7 regulations. Consistent with these principles, and in direct regard to production of cannabidiol, the manufacturer conducted accelerated stability studies utilizing batches of cannabidiol manufactured at full scale. […]. In addition, the manufacturer has batches of cannabidiol on a long-term stability study. […] For these batches, the data and results from these stability studies are in compliance with documentation procedures.

[2] = Solubility of cannabidiol in solvents, oils and buffers at 25° C.; type: physicochemical
[3] = Hygroscopicity of dronabinol by thermogravimetric analysis; type: physicochemical
[4] = Solubility of dronabinol at 25° C.; type: physicochemical; conditions: for solubility: organic solvent or mixture
Experimental: Solubility at 25° C.: Dronabinol is immiscible in water.

## C=C(C)[C@@H]1CCC(C)=C[C@H]1c1c(O)cc(CCCCC)cc1O [Cannabidiol, 2-[(1R,6R)-3-methyl-6-prop-1-en-2-ylcyclohex-2-en-1-yl]-5-pentylbenzene-1,3-diol]
OEL of cannabidiol
  OEL: 5-20 μg/m^3
[1]
  Stability (impurity levels, assay): no trends towards increased impurity levels or decrease in assay
[2]; Britton Robinson Buffer, aqueous buffer, BRB pH 6, 25° C.
  solubility: 0.00013 mg/mL (≈ 0.000413 mM)
[2]; Britton Robinson Buffer, aqueous buffer, BRB pH 8, 25° C.
  solubility: 0.00012 mg/mL (≈ 0.000382 mM)
[2]; Britton Robinson Buffer, pH 4, aqueous buffer, BRB pH4, 25° C.
  solubility: 0.00011 mg/mL (≈ 0.00035 mM)
[2]; Britton Robinson buffer, aqueous buffer, BRB pH 10, 25° C.
  solubility: 0.00013 mg/mL (≈ 0.000413 mM)
[2]; Britton Robinson buffer, aqueous buffer, BRB pH 11, 25° C.
  solubility: 0.00041 mg/mL (≈ 0.0013 mM)
[2]; Heptane, 25° C.
  Solubility: 64.6 mg/mL (≈ 205 mM)
[2]; Isooctane, 25° C.
  Solubility: 43.9 mg/mL (≈ 140 mM)
[2]; Water, 25° C.
  Solubility: <0.1 mg/mL
  solubility: < 0.1 mg/mL
[2]; aqueous buffer, BRB (Britton Robinson Buffer) pH 2, 25° C.
  solubility: 0.00011 mg/mL (≈ 0.00035 mM)
[2]; aqueous buffer, Britton Robinson Buffers
  solubility: < 0.1 mg/mL
[2]; aqueous buffer, Phosphate Buffer pH 6.5 without SLS, 25° C.
  solubility: 0.00015 mg/mL (≈ 0.000477 mM)
[2]; aqueous with cosolvent or surfactant or cyclodextrin, Cremophor EL, 25° C.
  solubility: > 100 mg/mL
[2]; aqueous with cosolvent or surfactant or cyclodextrin, Tween 80, 25° C.
  solubility: > 100 mg/mL
[2]; n-Decane, 25° C.
  Solubility: 36.8 mg/mL (≈ 117 mM)
[2]; oil or lipid, Dodecane Oil, 25° C.
  solubility: 28 mg/mL (≈ 89 mM)
[2]; oil or lipid, Mineral Oil, 25° C.
  solubility: 16 mg/mL (≈ 50.9 mM)
[2]; oil or lipid, Sesame Oil, 25° C.
  solubility: 216 mg/mL (≈ 687 mM)
[2]; oil or lipid, Sunflower Seed Oil, 25° C.
  solubility: > 100 mg/mL
[2]; organic solvent or mixture, 1,2-Dimethyloxyethane, 25° C.
  solubility: > 100 mg/mL
[2]; organic solvent or mixture, 1,4-dioxane, 25° C.
  solubility: > 100 mg/mL
[2]; organic solvent or mixture, 1-Propanol, 25° C.
  solubility: > 100 mg/mL
[2]; organic solvent or mixture, 2-Propanol (IPA), 25° C.
  solubility: > 100 mg/mL
[2]; organic solvent or mixture, 2-butanone, 25° C.
  solubility: > 100 mg/mL
[2]; organic solvent or mixture, 2-methyl tetrahydrofuran (2-MeTHF), 25° C.
  solubility: > 100 mg/mL
[2]; organic solvent or mixture, 2-methyl tetrahydrofuran saturated with water, 25° C.
  solubility: > 100 mg/mL
[2]; organic solvent or mixture, Acetone, 25° C.
  solubility: > 100 mg/mL
[2]; organic solvent or mixture, Acetonitrile (ACN), 25° C.
  solubility: > 100 mg/mL
[2]; organic solvent or mixture, Anisole, 25° C.
  solubility: > 100 mg/mL
[2]; organic solvent or mixture, Chloroform, 25° C.
  solubility: > 100 mg/mL
[2]; organic solvent or mixture, Cumene, 25° C.
  solubility: > 100 mg/mL
[2]; organic solvent or mixture, Cyclohexane, 25° C.
  solubility: > 100 mg/mL
[2]; organic solvent or mixture, DMSO, 25° C.
  solubility: > 100 mg/mL
[2]; organic solvent or mixture, Dichloromethane, 25° C.
  solubility: > 100 mg/mL
[2]; organic solvent or mixture, Diethyl Ether, 25° C.
  solubility: > 100 mg/mL
[2]; organic solvent or mixture, Ethanol (EtOH), 25° C.
  solubility: > 100 mg/mL
[2]; organic solvent or mixture, Ethyl Acetate (EtOAc), 25° C.
  solubility: > 100 mg/mL
[2]; organic solvent or mixture, Ethyl Formate, 25° C.
  solubility: > 100 mg/mL
[2]; organic solvent or mixture, Isobutanol, 25° C.
  solubility: > 100 mg/mL
[2]; organic solvent or mixture, Isopropyl Acetate (IPAc), 25° C.
  solubility: > 100 mg/mL
[2]; organic solvent or mixture, Methanol (MeOH), 25° C.
  solubility: > 100 mg/mL
[2]; organic solvent or mixture, N-methyl-pyrrolidone, 25° C.
  solubility: > 100 mg/mL
[2]; organic solvent or mixture, Tetrahydrofuran, 25° C.
  solubility: > 100 mg/mL
[2]; organic solvent or mixture, Toluene, 25° C.
  solubility: > 100 mg/mL
[2]; organic solvent or mixture, all other solvents examined with the exception of heptane, n-decane and isooctane
  solubility: > 100 mg/mL
[2]; organic solvent or mixture, methylcyclohexane, 25° C.
  solubility: > 100 mg/mL
[2]; organic solvent or mixture, n-hexane, 25° C.
  solubility: > 100 mg/mL
[2]; organic solvent or mixture, p-Xylene, 25° C.
  solubility: > 100 mg/mL
[2]; organic solvent or mixture, tert-Butyl methyl ether (MTBE), 25° C.
  solubility: > 100 mg/mL
[2]; phosphate buffer with 0.4% SLS, aqueous with cosolvent or surfactant or cyclodextrin, Phosphate Buffer pH 6.5 with 0.4% SLS, 25° C.
  solubility: 0.00012 mg/mL (≈ 0.000382 mM)

## CCCCCc1cc(O)c2c(c1)OC(C)(C)[C@@H]1CCC(C)=C[C@@H]21 [Dronabinol, 2-(6aR,10aR) 6a,7,8,10a-tetrahydro-6,6,9-trimethyl-3-pentyl-6H-dibenzo[b,d]pyran-l-ol]
[3]
  Hygroscopicity: non-hygroscopic
[3]; approximately 140° C.
  weight change: less than 0.1%
[4]; Water
  Solubility: immiscible
[4]; Acetone
  solubility: 100 mg/mL (≈ 318 mM)
[4]; Ethanol
  solubility: 100 mg/mL (≈ 318 mM)
